Source: article PMC5772633 (Scientific Reports, 2018)
“And” between values parts separate entries of the source, which are not always exact repeats. Identical values can stand only once.

Columns and labels:
[1] = molecular target: T1, human D3 receptor mutant E90Q (Homo sapiens, UniProt P35462, E90Q); test: Radioligand binding assay, D3R mutant E90Q; settings: two replicas
T1 construct: Flag tag (N); His tag (C); expressed in transfected cells; host or cells: SF9 insect cells (membranes)
Experimental: (§1) The D3R mutations were located in the OBS or the vicinity of the OBS and were performed on nine different residues (Fig. 1).
(§2) Point mutants were made by site-directed mutagenesis using 0.5 μl Takara’s PrimeStar Hot start polymerase with 20ng D3R wild type template plasmid DNA, 5 × PrimeStar buffer, 4 μl dNTP mix (2.5 mM each dNTP), plus 0.5 μg forward and reverse primers. 18 cycles were performed at 98 °C for 30 seconds, 55 °C for 30 seconds and 72 °C for 6.5 minutes. The template was degraded with DpnI for 1 hr and transformed into DH5α competent cells.
(§3) Mutants were expressed in SF9 insect cells for 48 hrs with an approximate MOI of 5. A list of mutagenesis primers used can be found in Table S3.
(§4) Binding assays were performed on membranes prepared from transiently transfected human D3 receptor mutants in SF9 insect cells. Frozen cell paste was homogenized by Polytron in 50 mM Tris HCl buffer (pH 7.4 at 4 degrees C) containing 2.0 mM MgCl2. […] 7-OH-DPAT levels were determined by liquid scintillation counting of the filterplates in Ecolume scintillation fluid. […] Ki values were calculated according to the Cheng- Prusoff equation, Ki = IC50/(1 + (L/Kd)), where L is the concentration of the radioligand used in the experiment and the Kd value is the dissociation constant for the radioligand at the mutant receptor (determined previously by saturation analysis).

[2] = molecular target: T2, human D3 receptor mutant C114L (Homo sapiens, UniProt P35462, C114L); test: Radioligand binding assay, D3R mutant C114L; settings: two replicas
T2 construct: Flag tag (N); His tag (C); expressed in transfected cells; host or cells: SF9 insect cells (membranes)
Experimental: as §1, §2, §3, §4

[3] = molecular target: human D3 receptor mutant Y373F (Homo sapiens, UniProt P35462, Y373F); test: Radioligand binding assay, D3R mutant Y373F; settings: two replicas
Experimental: as §1, §2, §3, §4

[4] = molecular target: T3, human D3 receptor mutant Y36L (Homo sapiens, UniProt P35462, Y36L); test: Radioligand binding assay, D3R mutant Y36L; settings: two replicas
T3 construct: Flag tag (N); His tag (C); expressed in transfected cells; host or cells: SF9 insect cells (membranes)
Experimental: as §1, §2, §3, §4

[5] = molecular target: T4, human D3 receptor mutant E90L (Homo sapiens, UniProt P35462, E90L); test: Radioligand binding assay, D3R mutant E90L; settings: two replicas
T4 construct: Flag tag (N); His tag (C); expressed in transfected cells; host or cells: SF9 insect cells (membranes)
Experimental: as §1, §2, §3
Binding assays were performed on membranes prepared from transiently transfected human D3 receptor mutants in SF9 insect cells. Frozen cell paste was homogenized by Polytron in 50 mM Tris HCl buffer (pH 7.4 at 4 degrees C) containing 2.0 mM MgCl2. The cell membranes were spun in a high-speed centrifuge at 40,000 × g for ten minutes. The final pellet was re-suspended in assay buffer (50 mM Tris buffer, 120 mM NaCl, 5 mM MgCl2, 5 mM KCl, 2 mM CaCl2, pH 7.4 at 37 °C). […] 7-OH-DPAT levels were determined by liquid scintillation counting of the filterplates in Ecolume scintillation fluid.

[6] = molecular target: T5, human D3 receptor mutant V189A (Homo sapiens, UniProt P35462, V189A); test: Radioligand binding assay, D3R mutant V189A
T5 construct: Flag tag (N); His tag (C); expressed in transfected cells; host or cells: SF9 insect cells (membranes)
Experimental: as §1, §2, §3, §4

[7] = molecular target: human D3 receptor triple mutant Y36L, S182I, V350I (Homo sapiens, UniProt P35462, S182I/V350I/Y36L); test: Radioligand binding assay, D3R triple mutant; settings: two replicas
Experimental: as §1, §2, §3, §4

[8] = molecular target: T6, human D3 receptor mutant I183F (Homo sapiens, UniProt P35462, I183F); test: Radioligand binding assay, D3R mutant I183F
T6 construct: Flag tag (N); His tag (C); expressed in transfected cells; host or cells: SF9 insect cells (membranes)
Experimental: as §1, §2, §3, §4

[9] = molecular target: T7, human D3 receptor mutant Y36F (Homo sapiens, UniProt P35462, Y36F); test: Radioligand binding assay, D3R mutant Y36F; settings: two replicas
T7 construct: Flag tag (N); His tag (C); expressed in transfected cells; host or cells: SF9 insect cells (membranes)
Experimental: as §1, §2, §3, §4

[10] = molecular target: T8, human D3 receptor mutant V189I (Homo sapiens, UniProt P35462, V189I); test: Radioligand binding assay, D3R mutant V189I; settings: two replicas
T8 construct: Flag tag (N); His tag (C); expressed in transfected cells; host or cells: SF9 insect cells (membranes)
Experimental: as §1, §2, §3, §4

[11] = design: method as in PMID 27715007; settings: in vivo; cited from earlier work
[12] = molecular target: T9, human D3 receptor mutant Y365L (Homo sapiens, UniProt P35462); test: Radioligand binding assay, D3R mutant Y365L; settings: two replicas
T9 construct: Flag tag (N); His tag (C); expressed in transfected cells; host or cells: SF9 insect cells (membranes)
Experimental: as §1, §2, §3, §4

D2R = test system: D2R; design: method as in PMID 27715007; settings: cited from earlier work
[13] = molecular target: T10, human D3 receptor mutant S182I (Homo sapiens, UniProt P35462, S182I); test: Radioligand binding assay, D3R mutant S182I; settings: two replicas
T10 construct: Flag tag (N); His tag (C); expressed in transfected cells; host or cells: SF9 insect cells (membranes)
Experimental: as §1, §2, §3, §4

wt-D3R = molecular target: T11, wt-D3R (Homo sapiens, UniProt P35462); test: Radioligand ([3H]7-OH-DPAT) binding assay, wild type D3R membranes from SF9 cells
T11 construct: Flag tag (N); His tag (C); expressed in transfected cells; host or cells: SF9 insect cells (membranes), pFastbac/baculovirus

D3R = settings: Table 1; cited from earlier work

SMILES	Ki [1]	Ki [2]	Ki [3]	Ki [4]	Ki [5]	Ki ([6]; D3R mutant V189A, two replicas)	decrease in affinity (fold-shift Ki mutant/Ki wt) ([6]; V189A mutant vs wt D3R)	Ki [7]	Ki ([8]; D3R mutant I183F, two replicas)	decrease in affinity (fold-shift Ki mutant/Ki wt) ([8]; I183F mutant vs wt D3R)	Ki [9]	Ki [10]	locomotor or catalepsy side effects [11]	Ki [12]	D2R receptor occupancy (D2R)	Ki [13]	Ki (wt-D3R; wild type D3R, Table 1)	ΔGexp (experimental binding free energy) (wt-D3R; wt D3R)	Ki (D3R)
CCN1CCO[C@@H](c2ccc(NS(=O)(=O)c3ccc(C(C)C)cc3)c(C)c2)C1 [Compound 1, PF-4363467]	6 nM and 5.4 nM	1.6 nM and 1.3 nM	14.8 nM and 15.8 nM	22 nM and 13 nM	4.9 nM and 3.7 nM	24 nM and 30 nM	8 fold	29.5 nM and 22 nM	55 nM and 43 nM	14 fold	3.2 nM and 2.5 nM	8.2 nM and 6.5 nM	lack of locomotor or catalepsy side effects	13.1 nM and 12.5 nM	86%	3.6 nM and 2.1 nM	3.4 ± 0.4 nM	-48.5 kJ/mol	–
CCc1cc(Cl)c(OC)c(C(=O)NC[C@@H]2CCCN2CC)c1O [Compound 2, Eticlopride]	–	–	–	–	–	–	–	–	–	–	–	–	–	–	–	–	–	–	0.24 nM
